Data taken from patent US20080221088A1, “3,4-Substituted Thiazoles as Ampk Activators” (priority 2005, published 2008).

Key:
AMPK [1] = test: AMPK activation potential, cell based ELISA with p-AMPK specific antibody, Hep G2 cells; conditions: HepG-2 cells, 24 hours incubation, normalized to metformin at 2 mM as 100%
Protocol: (§1) AMPK activation potential percentages are obtained by normalizing the values obtained at the concentrations in the range of 2 nM-10 μM with that of metformin by considering the values obtained for metformin at 2 mM concentrations as 100%.
(§2) AMPK activation potential of the compounds of formula (I) was evaluated using a cell based ELISA approach. Skeletal muscle (L6 muscle) and hepatoma (Hep G2) liver cells were cultured for 48 hours prior to drug addition at various concentrations. Twenty four (24) hours later, the cells were fixed and the ELISA plate developed following standard protocol using p-AMPK specific antibody.
(§3) Various cell lines such as HepG2 and L6 were revived from glycerol stocks (ATCC). The cells were maintained in a T 75 culture flask-containing medium (DMEM+10% fetal calf serum). On reaching a confluence of 70 to 80%, the cells was seeded in a 96 well plate at a density of 10×10^3 cells per well in DMEM+10% FCS medium. The plates are then incubated at 37° C. with 5% CO2 for 48 hours. Various concentrations of drugs were prepared in DMSO and diluted to required concentration with the medium and incubated at 37° C. with 5% CO2 for 24 hours. Cells were fixed with 4% formaldehyde in PBS for 30 minutes at 25-35° C. and washed three times with PBS containing 0.1% Triton X-100. Endogenous peroxidase was quenched with 0.6% H2O2 in PBS-T for 30 minutes and washed three times in PBS-T. Then the cells were blocked with 10% FCS in PBS-T for 1 hour. The cells were incubated for 8-12 hours with various concentrations of primary antibody in PBS-T containing 5% BSA at 4° C. The cells were then washed three times with PBS-T for 5 minutes and incubated with secondary antibody (HRP conjugated 1:500 in PBS-T with 5% BSA for 1 hour at 25-35° C. The cells were washed three times with PBS-T for 5 minutes and twice with PBS. The cells were incubated with 100 μl TMB/H2O2 color developing solution for 15 minutes and the reaction was stopped with 50 μl of 1M H2SO4. Then the plate was read at 460 nm using ELISA plate reader.
(§4) (AMPK activation potential percentages are obtained by normalizing the values obtained at 10 μM concentration with that of metformin by considering the values obtained for metformin at 2 mM concentrations as 100%).

AMPK [2] = test: AMPK activation potential, cell based ELISA with p-AMPK specific antibody, L6 muscle cells; conditions: 24 hours incubation, normalized to metformin at 2 mM as 100%
Protocol: as §1, §2, §3, §4

| melting point [°C] | SMILES | AMPK % activation (at 10 μM) HepG-2 muscle cells (AMPK [1]) [%] | AMPK % activation (at 10 μM) L6 muscle cells (AMPK [2]) [%] |
| --- | --- | --- | --- |
| 150 to 152 | CCOC(=O)Cc1csc(Nc2ccc(Cl)c(C(F)(F)F)c2)n1 [Example 1, [2-(4-Chloro-3-trifluoromethyl-phenylamino)-thiazol-4-yl]-acetic acid ethyl ester] | 89 | 88.2 |
| 161 to 164 | CCOC(=O)Cc1csc(Nc2ccc(Br)c(C(F)(F)F)c2)n1 [Example 1-a, [2-(4-Bromo-3-trifluoromethyl-phenylamino)-thiazol-4-yl]-acetic acid ethyl ester] |  |  |
|  | O=C(O)Cc1csc(Nc2ccc(Cl)c(C(F)(F)F)c2)n1 [Example 2, [2-(4-Chloro-3-trifluoromethyl-phenylamino)-thiazol-4-yl]-acetic acid] | 102.69 | 91.56 |
| 142 to 144 | Cc1ccc(Nc2nc(CC(=O)O)cs2)cc1Cl [Example 2-b, [2-(3-Chloro-4-methyl-phenylamino)-thiazol-4-yl]-acetic acid] |  |  |
| 147 to 148 | Cc1ccc(Nc2nc(CC(=O)O)cs2)cc1F [Example 2-e, [2-(3-Fluoro-4-methyl-phenylamino)-thiazol-4-yl]-acetic acid] |  |  |
| 176 to 177 | O=C(O)Cc1csc(Nc2ccc(Br)c(F)c2)n1 [Example 2-g, [2-(4-Bromo-3-fluoro-phenylamino)-thiazol-4-yl]-acetic acid] |  |  |
| 167 to 169 | O=C(O)Cc1csc(Nc2ccc(F)c(C(F)(F)F)c2)n1 [Example 2-h, [2-(4-Fluoro-3-trifluoromethyl-phenylamino)-thiazol-4-yl]-acetic acid] |  |  |
| 154 to 155 | Cc1ccc(Nc2nc(CC(=O)O)cs2)cc1C(F)(F)F [Example 2-i, [2-(4-Methyl-3-trifluoromethyl-phenylamino)-thiazol-4-yl]-acetic acid] |  |  |
| 160 to 165 | CC(C)(CC(=O)O)c1csc(Nc2ccc(Cl)c(C(F)(F)F)c2)n1 [Example 2-j, 3-[2-(4-Chloro-3-trifluoromethyl-phenylamino)-thiazol-4-yl]-3-methyl-butyricacid] |  |  |
|  | O=C(O)Cc1csc(Nc2ccc(Br)c(C(F)(F)F)c2)n1 [Example 2a, [2-(4-Bromo-3-trifluoromethyl-phenylamino)-thiazol-4-yl]-acetic acid] | 91.3 | 83.4 |
| 148 to 150 | CNC(=O)Cc1csc(Nc2ccc(Cl)c(C(F)(F)F)c2)n1 [Example 3, 2-[2-(4-Chloro-3-trifluoromethyl-phenylamino)-thiazol-4-yl]-N-methyl-acetamide] | 102.14 | 101.20 |
| 115 to 118 | NNC(=O)Cc1csc(Nc2ccc(Cl)c(C(F)(F)F)c2)n1 [Example 3-b, [2-(4-Chloro-3-trifluoromethyl-phenylamino)-thiazol-4-yl]-acetic acid hydrazide] |  |  |
| 205 to 207 | NC(=O)Cc1csc(Nc2ccc(Cl)c(C(F)(F)F)c2)n1 [Example 3c, 2-[2-(4-Chloro-3-trifluoromethyl-phenylamino)-thiazol-4-yl]-acetamide] | 102.43 | 88.1 |
| 108 to 112 | O=C(Cc1csc(Nc2ccc(Cl)c(C(F)(F)F)c2)n1)Nc1ccc(Cl)c(C(F)(F)F)c1 [Example 4, N-(4-Chloro-3-trifluoromethyl-phenyl)-2-[2-(4-chloro-3-trifluoromethyl-phenylamino)-thiazol-4-yl]-acetamide] |  |  |
| 179 to 180 | COc1ccc(NC(=O)Cc2csc(Nc3ccc(Cl)c(C(F)(F)F)c3)n2)cc1 [Example 4-a, 2-[2-(4-Chloro-3-trifluoromethyl-phenylamino)-thiazol-4-yl]-N-(4-methoxy-phenyl)-acetamide] |  |  |
| 194 to 195 | CC(=O)c1ccc(NC(=O)Cc2csc(Nc3ccc(Cl)c(C(F)(F)F)c3)n2)cc1 [Example 4-b, N-(4-Acetyl-phenyl)-2-[2-(4-chloro-3-trifluoromethyl-phenylamino)-thiazol-4-yl]-acetamide] |  |  |
| 146 to 148 | O=C(Cc1csc(Nc2ccc(Cl)c(C(F)(F)F)c2)n1)Nc1ccc(F)cc1 [Example 4-c, 2-[2-(4-Chloro-3-trifluoromethyl-phenylamino)-thiazol-4-yl]-N-(4-fluoro-phenyl)-acetamide] |  |  |
| 178 to 180 | O=C(Cc1csc(Nc2ccc(Cl)c(C(F)(F)F)c2)n1)Nc1ccncc1 [Example 4-d, 2-[2-(4-Chloro-3-trifluoromethyl-phenylamino)-thiazol-4-yl]-N-pyridin-4-yl-acetamide] |  |  |
| 151 to 152 | CSc1ccc(NC(=O)Cc2csc(Nc3ccc(Cl)c(C(F)(F)F)c3)n2)cc1 [Example 4-e, 2-[2-(4-Chloro-3-trifluoromethyl-phenylamino)-thiazol-4-yl]-N-(4-methylsulfanyl-phenyl)-acetamide] |  |  |
| 262 to 263 | CC(=O)Nc1ccc(NC(=O)Cc2csc(Nc3ccc(Cl)c(C(F)(F)F)c3)n2)cc1 [Example 4-f, N-(4-Acetylamino-phenyl)-2-[2-(4-chloro-3-trifluoromethyl-phenylamino)-thiazol-4-yl]-acetamide] |  |  |
| 196 to 198 | O=C(Cc1csc(Nc2ccc(Cl)c(C(F)(F)F)c2)n1)Nc1nccs1 [Example 4-g, 2-[2-(4-Chloro-3-trifluoromethyl-phenylamino)-thiazol-4-yl]-N-thiazol-2-yl-acetamide] |  |  |
| 191 to 192 | O=C(Cc1csc(Nc2ccc(Cl)c(C(F)(F)F)c2)n1)Nc1cccnc1 [Example 4-h, 2-[2-(4-Chloro-3-trifluoromethyl-phenylamino)-thiazol-4-yl]-N-pyridin-3-yl-acetamide] |  |  |
| 210 to 211 | O=C(Cc1csc(Nc2ccc(Cl)c(C(F)(F)F)c2)n1)N1CCOCC1 [Example 4-i, 2-[2-(4-Chloro-3-trifluoromethyl-phenylamino)-thiazol-4-yl]-1-morpholin-4-yl-ethanone] |  |  |
| 185 to 187 | O=C(Cc1csc(Nc2ccc(Cl)c(C(F)(F)F)c2)n1)N1CCSCC1 [Example 4-j, 2-[2-(4-Chloro-3-trifluoromethyl-phenylamino)-thiazol-4-yl]-1-thiomorpholin-4-yl-ethanone] |  |  |
| 65 to 70 | COc1ccc(CNC(=O)Cc2csc(Nc3ccc(Cl)c(C(F)(F)F)c3)n2)cc1 [Example 4-k, 2-[2-(4-Chloro-3-trifluoromethyl-phenylamino)-thiazol-4-yl]-N-(4-methoxy-benzyl)-acetamide] |  |  |
| 254 to 256 | O=C(O)c1csc(Nc2ccc(Cl)c(C(F)(F)F)c2)n1 [Example 5, 2-(4-Chloro-3-trifluoromethyl-phenylamino)-thiazole-4-carboxylic acid] |  |  |
